Measurements from the CheMixHub viscosity set.
Values joined by “and” are separate entries in the source; they are usually repeats but may differ in a detail not shown here. Identical values can stand only once. ± gives the uncertainty stated by the source.

Test: xn = mol fraction of the nth substance listed

Cc1cc(C)cc(C)c1 + CCCCCCCCCCO
viscosity [mPa·s], 101 kPa
Conditions	298.15 K	308.15 K
x1 = 0.0752	9.427 ± 0.063	6.401 ± 0.045
x1 = 0.1354	7.818 ± 0.052	5.334 ± 0.038
x1 = 0.2083	6.204 ± 0.042	4.256 ± 0.03
x1 = 0.265	5.179 ± 0.035	3.572 ± 0.025
x1 = 0.3292	4.194 ± 0.028	2.936 ± 0.02
x1 = 0.3894	3.456 ± 0.023	2.445 ± 0.017
x1 = 0.4633	2.728 ± 0.018	1.942 ± 0.014
x1 = 0.5303	2.202 ± 0.015	1.595 ± 0.012
x1 = 0.6033	1.754 ± 0.012	1.279 ± 0.01
x1 = 0.6643	1.458 ± 0.011	1.084 ± 0.009
x1 = 0.7341	1.195 ± 0.009	0.901 ± 0.008
x1 = 0.7998	1.002 ± 0.009	0.768 ± 0.008
x1 = 0.8724	0.838 ± 0.008	0.669 ± 0.007
x1 = 0.9442	0.728 ± 0.008	0.606 ± 0.007

O=C(Cc1ccccc1)c1ccccc1 + CCCCCOC(C)=O
298.15 K, 101 kPa
Conditions	viscosity [mPa·s]
x1 = 0.0268	0.8294 ± 0.01
x1 = 0.0344	0.849 ± 0.011

O=S=O + CCCCN(CCCC)CCCC
303.15 K, 100 kPa
Conditions	viscosity [mPa·s]
x1 = 0.21	1.4
x1 = 0.35	3.2
x1 = 0.45	12.9

O=C1CCCN1 + CCCCO
Conditions	viscosity [mPa·s]
293.15 K, 101 kPa, x1 = 0.8554	10.75 ± 0.79

Cc1cc(C)cc(C)c1 + CCCO
293.15 K, 101 kPa
Conditions	viscosity [mPa·s]
x2 = 0.2	0.748 ± 0.015
x2 = 0.4	0.855 ± 0.017
x2 = 0.6	1.075 ± 0.02
x2 = 0.8	1.419 ± 0.026

CC=CC(=O)OCC + CCO
viscosity [mPa·s], 101 kPa
Conditions	x1 = 0.0991	x1 = 0.1985	x1 = 0.2994	x1 = 0.3961	x1 = 0.5006	x1 = 0.6	x1 = 0.6968	x1 = 0.7816	x1 = 0.8996
293.15 K	1.026 ± 0.0095	0.929 ± 0.009	0.9257 ± 0.0084	0.9219 ± 0.0085	0.878 ± 0.008	0.8293 ± 0.0083	0.8016 ± 0.0085	0.8351 ± 0.0087	0.8122 ± 0.0091
298.15 K	0.9334 ± 0.0084	0.8523 ± 0.0077	0.8465 ± 0.0078	0.8404 ± 0.008	0.8061 ± 0.0079	0.7663 ± 0.0077	0.7402 ± 0.0077	0.7648 ± 0.0082	0.7535 ± 0.0084
303.15 K	0.8498 ± 0.0076	0.7812 ± 0.0071	0.7751 ± 0.0071	0.7739 ± 0.0073	0.7411 ± 0.0072	0.7061 ± 0.0071	0.6855 ± 0.0071	0.7052 ± 0.0075	0.7 ± 0.1
313.15 K	0.7166 ± 0.0065	0.6615 ± 0.0061	0.6607 ± 0.0062	0.6588 ± 0.0063	0.6372 ± 0.0063	0.6091 ± 0.0062	0.5958 ± 0.0063	0.6134 ± 0.0066	0.6108 ± 0.0069
323.15 K	0.6156 ± 0.0057	0.5747 ± 0.0054	0.5702 ± 0.0055	0.5686 ± 0.0055	0.5537 ± 0.0056	0.5363 ± 0.0055	0.5284 ± 0.0056	0.5414 ± 0.0059	0.5401 ± 0.0062

Cc1cc(C)cc(C)c1 + CCO
293.15 K, 101 kPa
Conditions	viscosity [mPa·s]
x2 = 0.2	0.718 ± 0.014
x2 = 0.4	0.764 ± 0.015
x2 = 0.6	0.854 ± 0.016
x2 = 0.8	0.983 ± 0.019

O=S=O + CCOC(C)=O
298.15 K, 101 kPa
Conditions	viscosity [mPa·s]
x1 = 0.115	0.4299 ± 0.011
x1 = 0.236	0.4289 ± 0.011
x1 = 0.35	0.4239 ± 0.011

O=S=O + CCOCC
298.15 K, 101 kPa
Conditions	viscosity [mPa·s]
x1 = 0.0574	0.2303 ± 0.0062
x1 = 0.0951	0.2353 ± 0.0063
x1 = 0.1329	0.24 ± 0.0064
x1 = 0.1607	0.2443 ± 0.0065

O=C1CCCN1 + CN1CCCC1=O
298.15 K, 100 kPa
Conditions	viscosity [mPa·s]
x1 = 0.0188	1.759 ± 0.018
x1 = 0.0298	1.79 ± 0.019
x1 = 0.0397	1.827 ± 0.019
x1 = 0.0507	1.835 ± 0.019
x1 = 0.065	1.874 ± 0.019
x1 = 0.0793	1.963 ± 0.02
x1 = 0.097	1.992 ± 0.021
x1 = 0.1004	1.999 ± 0.021
x1 = 0.1498	2.168 ± 0.022
x1 = 0.1993	2.356 ± 0.024
x1 = 0.2495	2.568 ± 0.026
x1 = 0.3001	2.808 ± 0.029
x1 = 0.3497	3.067 ± 0.032
x1 = 0.3986	3.361 ± 0.035
x1 = 0.4492	3.704 ± 0.039
x1 = 0.4994	4.091 ± 0.044
x1 = 0.5493	4.53 ± 0.05
x1 = 0.5989	5.022 ± 0.056
x1 = 0.6497	5.608 ± 0.064
x1 = 0.6992	6.263 ± 0.072
x1 = 0.7487	7.017 ± 0.082
x1 = 0.7986	7.914 ± 0.094
x1 = 0.8494	8.966 ± 0.11
x1 = 0.8984	10.14 ± 0.12
x1 = 0.918	10.67 ± 0.13
x1 = 0.9287	10.99 ± 0.14
x1 = 0.9394	11.33 ± 0.14
x1 = 0.959	12.01 ± 0.15
x1 = 0.9695	12.29 ± 0.15
x1 = 0.9798	12.64 ± 0.16
x2 = 0.0111	12.96 ± 0.16

OCCCCO + CN1CCCC1=O
308.15 K, 101 kPa
Conditions	viscosity [mPa·s]
x1 = 0.0277	1.784 ± 0.014
x1 = 0.0556	1.943 ± 0.015
x1 = 0.1011	2.235 ± 0.017
x1 = 0.1982	3.025 ± 0.023
x1 = 0.2982	4.088 ± 0.031
x1 = 0.4038	5.57 ± 0.041
x1 = 0.4943	7.06 ± 0.051
x1 = 0.6011	11.08 ± 0.078
x1 = 0.7044	16.24 ± 0.11
x1 = 0.7935	21.61 ± 0.15
x1 = 0.8996	33.43 ± 0.23
x1 = 0.946	39.29 ± 0.27
x1 = 0.965	41.43 ± 0.28

CCCCCCCC/C=C\CCCCCCCC(=O)O + CN1CCC[C@H]1c1cccnc1
viscosity [mPa·s], 101 kPa
Conditions	298.15 K	323.15 K
x2 = 0.1049	74.27 ± 1.1	22.13 ± 0.36
x2 = 0.1989	107 ± 2.2	29.28 ± 1.5
x2 = 0.2016	108 ± 2.2	29.56 ± 1.6
x2 = 0.2132	110.3 ± 2.3	30.03 ± 0.54
x2 = 0.2175	110.4 ± 2.3	30.15 ± 0.54
x2 = 0.2346	112.3 ± 2.4	30.48 ± 0.53
x2 = 0.2482	110.3 ± 2.3	30.13 ± 0.52
x2 = 0.2489	110 ± 2.3	30.12 ± 0.52
x2 = 0.2601	109.3 ± 2.3	30.1 ± 0.52
x2 = 0.2826	105.3 ± 2.1	28.77 ± 0.5
x2 = 0.298	102.5 ± 2	28.02 ± 0.6
x2 = 0.4102	73.48 ± 1.1	22.19 ± 0.36
x2 = 0.4841	51.84 ± 0.61	17.6 ± 0.27
x2 = 0.5948	34.19 ± 0.43	12.35 ± 0.18
x2 = 0.7031	20.12 ± 0.26	8.136 ± 0.12
x2 = 0.7939	11.7 ± 0.15	5.197 ± 0.073
x2 = 0.8975	7.276 ± 0.093	3.432 ± 0.047

OCCCCO + CN(C)C=O
308.15 K, 101 kPa
Conditions	viscosity [mPa·s]
x1 = 0.0565	0.762 ± 0.02
x1 = 0.101	0.904 ± 0.023
x1 = 0.1892	1.222 ± 0.03
x1 = 0.2806	1.761 ± 0.042
x1 = 0.3915	2.578 ± 0.06
x1 = 0.4722	3.596 ± 0.082
x1 = 0.5803	6.998 ± 0.14
x1 = 0.6682	10.85 ± 0.21
x1 = 0.7755	17.92 ± 0.32
x1 = 0.8845	28.4 ± 0.49
x1 = 0.9487	37.31 ± 0.64

Cc1cc(C)cc(C)c1 + CO
293.15 K, 101 kPa
Conditions	viscosity [mPa·s]
x2 = 0.2	0.696 ± 0.014
x2 = 0.4	0.699 ± 0.014
x2 = 0.5	0.715 ± 0.014
x2 = 0.6	0.721 ± 0.014
x2 = 0.8	0.683 ± 0.014

O=C1CCCN1 + CO
298.15 K, 100 kPa
Conditions	viscosity
x1 = 0.0098	0.568 ± 0.011 mPa·s
x1 = 0.0194	0.587 ± 0.011 mPa·s
x1 = 0.0295	0.641 ± 0.011 mPa·s
x1 = 0.0392	0.657 ± 0.011 mPa·s
x1 = 0.0499	0.687 ± 0.011 mPa·s
x1 = 0.059	0.671 ± 0.011 mPa·s
x1 = 0.0688	0.691 ± 0.011 mPa·s
x1 = 0.078	0.708 ± 0.011 mPa·s
x1 = 0.0883	0.755 ± 0.011 mPa·s
x1 = 0.0973	0.759 ± 0.023 mPa·s
x1 = 0.0988	0.906 ± 0.023 mPa·s
x1 = 0.2022	1.133 ± 0.013 mPa·s
x1 = 0.2963	1.432 ± 0.015 mPa·s
x1 = 0.3984	1.937 ± 0.019 mPa·s
x1 = 0.4592	2.346 ± 0.023 mPa·s
x1 = 0.5694	3.304 ± 0.033 mPa·s
x1 = 0.6844	4.749 ± 0.05 mPa·s
x1 = 0.7834	6.52 ± 0.073 mPa·s
x1 = 0.8988	9.529 ± 0.11 mPa·s and 9.56 ± 0.12 mPa·s
x1 = 0.9076	9.83 ± 0.12 mPa·s
x1 = 0.9213	10.34 ± 0.13 mPa·s
x1 = 0.9308	10.66 ± 0.13 mPa·s
x1 = 0.9383	10.97 ± 0.14 mPa·s
x1 = 0.9496	11.39 ± 0.14 mPa·s
x1 = 0.9615	11.92 ± 0.15 mPa·s
x1 = 0.9741	12.35 ± 0.15 mPa·s
x2 = 0.0101	13.03 ± 0.17 mPa·s
